Measured values: ChEMBL document CHEMBL3507680, “University of Dundee, Gates Library screen for HepG2 cell viability”
Several values for one entry are separate records, joined by “and”; a condition that tells them apart may be missing. Equal entries are not always repeated.

How the values were obtained:
[1] = Human HepG2 cell viability assay in 384 well format; assay type: toxicity, cell-based; parameters: dose 125 nL, time 70.5 hour; concentration not given beside the values; settings: HepG2 cells, read-out: Inhibition
[2] = Human HepG2 cell viability dose-response assay; assay type: toxicity, cell-based

SMILES	cytotoxicity at 70.5 h [1]	other results
O=C(Cn1cc(-c2ccccc2)ncc1=O)Nc1nc(C2CC2)n[nH]1	99.8%	BOTTOM [2]: -8.692 and -5.853; HILLSLOPE [2]: 2.68 and 2.241; TOP [2]: 101 and 102.4; pXC50 [2]: 5.614 and 5.594
Cc1cccc(C)c1Nc1noc2c1CN(C(=O)c1ccnn1C)CC2	69.8%	BOTTOM [2]: -5.714 and -2.53; HILLSLOPE [2]: 1.878 and 1.75; TOP [2]: 100; pXC50 [2]: 4.825 and 4.807
Cc1cccc(CN2CCCC2c2cccc(Nc3nccs3)n2)c1 (configuration not stated)	84.1%	HILLSLOPE [2]: 2.773 and 1.557; TOP [2]: 82.62 and 100; pXC50 [2]: 6.512 and 6.485
CC(C)c1cc(NC(=O)Cn2cnc3ccccc3c2=O)[nH]n1	104%	BOTTOM [2]: -4.443 and -6.453; HILLSLOPE [2]: 2.259 and 2.3; TOP [2]: 101.3 and 101.4; pXC50 [2]: 5.61 and 5.595
CC(C)c1ccc(CN2C(=O)C3(CCNCC3)Nc3ccccc32)cc1	105%	BOTTOM [2]: -7.959 and -9.531; HILLSLOPE [2]: 9.317 and 9.377; TOP [2]: 102.3 and 101.9; pXC50 [2]: 4.989 and 5.005
Clc1ccccc1C1(c2ccnc(C3CCCC3)n2)CCNCC1	73%	BOTTOM [2]: 17.52 and 27.16; HILLSLOPE [2]: 2.801 and 2.528; TOP [2]: 108.2 and 108.3; pXC50 [2]: 5.086 and 5.104
COc1ccccc1N1CCN(C(=O)CSCC2CC2)C(C)C1 (configuration not stated)	97.2%	BOTTOM [2]: 0; HILLSLOPE [2]: 0; TOP [2]: 0; pXC50 [2]: < 4.53
Cc1nc(C)n(CC2CCCN2Cc2nc3ccccc3c(=O)[nH]2)n1 (configuration not stated)	-1.61%	–
Cc1nc(C(=O)N2CCCC2c2c(C)nn(C)c2C)cs1 (configuration not stated)	-3.9%	–
Cc1nn(C)c(N(C)C)c1CNCc1ccccc1Cn1ccnc1	-1.82%	–
Cc1cnn(CCNCc2ccccc2OCc2ccccn2)c1	-0.163%	–
Cc1nc(C)n(CC2CCCN2Cc2nc3ccccc3s2)n1 (configuration not stated)	-5.56%	–
Cc1ccccc1OCCN1CCn2c(C)nnc2C1	25.1%	–
Cc1cc(C)cc(OCCN2CCn3c(C)nnc3C2)c1	-4.98%	–
CCn1ncc2c1CCCC2NCc1cccc2c1OCO2 (configuration not stated)	15.8%	–
Cc1ncccc1CNCC1CCN(CC(C)O)CC1 (configuration not stated)	-4.39%	–
CC(C)Oc1ncccc1CNC(=O)Nc1ccccn1	0.773%	–
CC(NCc1ccccc1Cl)c1ccc(OCC(=O)NC2CC2)cc1 (configuration not stated)	0.704%	–
Cc1cccc(CNC(C)c2ccc(OCC(=O)NC3CC3)cc2)c1 (configuration not stated)	-0.442%	–
CCN(Cc1nc2c(cnn2C)c(=O)[nH]1)c1ccccc1	3.68%	–
Cn1ncc2c1CCCC2NCc1cccc2c1OCCCO2 (configuration not stated)	0.963%	–
Cc1cc(C)n(CC2CN(c3ncnc4[nH]ccc34)CCO2)n1 (configuration not stated)	1.04%	–
CC(Cn1cccn1)NCc1ccc(OCc2ccncc2)cc1 (configuration not stated)	3.19%	–
Cc1cnn(CC(C)NCc2ccc(OCC(N)=O)cc2)c1 (configuration not stated)	11.6%	–
Cc1ccc(CNCC2CCN(CC(O)c3ccccc3)CC2)o1 (configuration not stated)	-1.65%	–
Cc1cnn(CC2CN(c3ncnc4[nH]ccc34)CCO2)c1 (configuration not stated)	1.56%	–
O=C(Nc1ccccc1)N1CCN(Cc2noc(C3CC3)n2)CC1	-7.64%	–

SMILES	cytotoxicity at 70.5 h [1]	other results
Cc1ccccc1NC(=O)N1CCN(Cc2noc(C3CC3)n2)CC1	1.73%	–
CCn1ncc2c1CCCC2NCc1ccc2c(c1)CCO2 (configuration not stated)	-0.486%	–
COc1ccc(COCC(O)CNC(=O)c2cccc(OC)c2)cc1 (configuration not stated)	-0.933%	–
CCc1n[nH]c(C2CN(CCCS(C)(=O)=O)CCO2)n1 (configuration not stated)	32.1%	–
CC(C)n1ccnc1CN1CCCN(C(=O)CC2CCCO2)CC1 (configuration not stated)	23.9%	–
FC(F)(F)COCCN1CCOC(Cn2cccn2)C1 (configuration not stated)	-0.0607%	–
COCCC(=O)N1CCCN(Cc2nccn2C(C)C)CC1	-1.06%	–
CC(C)(C)c1nc(CN(Cc2cccs2)CC2CCCO2)no1 (configuration not stated)	3.58%	–
CCc1n[nH]c(C2CN(CCS(C)(=O)=O)CCO2)n1 (configuration not stated)	-0.712%	–
Cn1ccnc1CN1CCCN(C(=O)COC2CCCC2)CC1	-2.98%	–
CCc1nc(CN2CCCN(c3nn4cc(C)nc4s3)CC2)no1	23.9%	–
O=C(Cc1csc(-c2ccco2)n1)N1CCSCC1	-11.7%	–
Cc1ccc(C(=O)NC2CCN(Cc3cccc4c3OCCO4)CC2)s1	-2.59%	–
Cc1cccc(C2(C(=O)NCC3CCN(CC(F)(F)F)C3)CCC2)c1 (configuration not stated)	-1.39%	–
CNC(=O)C1CCN(C(=O)NCCc2ccc(Cl)s2)CC1	-5.01%	–
c1ccc(-n2ccc(CN3CCCC(Cn4cncn4)C3)n2)cc1 (configuration not stated)	0.226%	–
COc1cccc(C(=O)N2CCC(Nc3ccc(C)nn3)CC2)c1	1.25%	–
Cc1ccc(F)c(C(=O)N2CCC(Nc3ccc(C)nn3)CC2)c1	-2.35%	–
CCn1c(C)cc(C(=O)N2CCc3nnc(N)cc3C2)c1C	-0.105%	–
O=C(O)c1cc(S(=O)(=O)Nc2ccc(F)cc2Cl)cc2c1OCCO2	0.949%	–
O=C(O)c1cc(S(=O)(=O)Nc2ccc(F)c(Cl)c2)cc2c1OCCO2	3.36%	–
O=C(O)c1cc(S(=O)(=O)Nc2cc(F)cc(F)c2)cc2c1OCCO2	-4.5%	–
c1cnnc(N2CCCC2CNc2ncnc3ccsc23)c1 (configuration not stated)	-1.29%	–
CC(C)N1CCN(C(=O)Cc2csc(-c3ccco3)n2)CC1	-0.696%	–
CNC(=O)CS(=O)(=O)Cc1cc(Cl)c2c(c1)OCCCO2	25.7%	–
COc1ccc(S(=O)(=O)NCc2cccnc2N(C)C)cc1F	40.3%	–
Cc1csc(NC(=O)CN2CCC(c3ccnn3CCO)CC2)n1	33.6%	–

SMILES	cytotoxicity at 70.5 h [1]	other results
c1cnn(CC2CN(Cc3ccc(-n4ccnc4)cc3)CCO2)c1 (configuration not stated)	12.9%	–
CCOc1ccnc(N2CCN(C(=O)c3cc(Cl)c[nH]3)CC2)n1	25.8%	–
Cc1cnn(CCC(=O)N2CCN(c3nc(C)cs3)CC2)c1	30.3%	–
c1cnn(-c2ccc(CN3CCOC(Cn4cncn4)C3)cc2)c1 (configuration not stated)	18.2%	–
O=C(CN1CCCCC1Cn1cncn1)NCCC1=CCCCC1 (configuration not stated)	32%	–
Nc1cc2c(nn1)CCN(C(=O)CC1CCCC1)C2	3.78%	–
COc1c(C2CCCN2C(=O)Cc2c(C)noc2C)c(C)nn1C (configuration not stated)	11%	–
CS(=O)(=O)NCCCN1CCCC1Cc1ccccc1 (configuration not stated)	4.23%	–
CS(=O)(=O)NCCCN1CCCCC1c1cc2ccccc2[nH]1 (configuration not stated)	33.9%	–
O=C(CN1CCCCC1Cn1cncn1)NCc1ccccn1 (configuration not stated)	-4.27%	–
CN(Cc1ccc(F)cc1)C(=O)CN1CCCC(Cn2cncn2)C1 (configuration not stated)	3.89%	–
c1ccc(CN2CCCC2Cn2cncn2)nc1 (configuration not stated)	7.22%	–
CN1CCOC(CNCc2coc(-c3cccs3)n2)C1 (configuration not stated)	27.5%	–
c1cnn(CCNCc2nnc(C3CC3)o2)c1	48.9%	–
CN(C)CC1CN(c2cnc3ccccc3n2)CCO1 (configuration not stated)	11.3%	–
COc1ccc(C(O)CNc2c(C#N)c(=O)n(C)c(=O)n2C)cc1 (configuration not stated)	3.78%	–
COc1cc(C(=O)Nc2nc(C)no2)ccc1C	36.1%	–
O=C1C(NS(=O)(=O)c2cc(F)cc(F)c2)CCN1Cc1ccccc1 (configuration not stated)	23.4%	–
COc1ccc(C2=CCN(C(=O)CN(C)Cc3ccoc3)CC2)cc1	49.4%	–
CCCNC(=O)C1CCN(Cc2csc(C(C)(C)C)n2)CC1	-9.45%	–
Cc1cc(CN2CCN(C(c3ccccc3)c3ccccc3)CC2)no1	1.19%	–
CC(C)(C)c1nnc(CN2CCOC(Cn3cccn3)C2)o1 (configuration not stated)	5.79%	–
Cc1cccc(C2(CNC(=O)CCNS(C)(=O)=O)CCCC2)c1	27%	–
CC(C)c1n[nH]c(C(=O)Nc2ccncc2)c1Br	3.41%	–
Cc1nc(CN2CCCC(NCCc3ccccc3Cl)C2)no1 (configuration not stated)	-6.15%	–
CCCNC(=O)CN1CCN(Cc2csc(C(C)(C)C)n2)CC1	4.04%	–
CCc1n[nH]c(C2CN(C(=O)c3cnc(C)s3)CCO2)n1 (configuration not stated)	23.1%	–

SMILES	cytotoxicity at 70.5 h [1]	other results
CCN1CCN(C2CCN(Cc3cc(C)on3)CC2)C1=O	49.1%	–
O=C(CCc1ccc(Cl)s1)N1CCCC(n2cncn2)C1 (configuration not stated)	11.3%	–
CN1CCOC(CNCc2nc(-c3ccccc3)cs2)C1 (configuration not stated)	9.31%	–
Cc1noc(C(C)C)c1C(=O)NCC(c1ccsc1)N(C)C (configuration not stated)	4.78%	–
CC(O)CN1CCN(Cc2nnc(C3CC3)o2)CC1 (configuration not stated)	-4%	–
CN(Cc1nc(-c2ccco2)no1)C1CCCN(c2cccnn2)C1 (configuration not stated)	-14.4%	–
Cc1nc(CSCCC(=O)NCc2cccnc2N(C)C)cs1	-13.6%	–
COc1cccc(CNC(=O)N2CCN(Cc3cc(C)on3)CC2)c1	-20.5%	–
CCc1c(C(=O)NC2CCS(=O)(=O)C2)cnn1-c1ccc(F)cc1 (configuration not stated)	-22.6%	–
CCOc1ccc(C#N)cc1NCC(=O)Nc1cc(F)ccc1F	6.71%	–
CCOc1ccc(C#N)cc1NCC(=O)Nc1cc(C)no1	-14.1%	–
CCc1c(C(=O)NCC(=O)OCC2CC2)cnn1-c1ccc(C)cc1	27.6%	–
Cc1cc(CNC(=O)N2CCCN(Cc3ccccc3)CC2)no1	-9.16%	–
CCN(CC1CCCO1)C(=O)Nc1ccc(F)cc1OC (configuration not stated)	-8.02%	–
c1ccc(-c2cnc(CN3CCCC3Cn3cncn3)o2)cc1 (configuration not stated)	-14.6%	–
CC(C)(C)c1nnc(CN2CCN(CC(O)c3ccccc3)CC2)o1 (configuration not stated)	-11.1%	–
Cc1cccc(NC2CCN(C(=O)Nc3cccc4[nH]ccc34)CC2)n1	-8.86%	–
CCC(O)CN1CCN(C(=O)c2cccn2Cc2ccccc2)CC1 (configuration not stated)	-10.3%	–
Fc1cccc(-c2nc(CN3CCCCC3Cn3cncn3)co2)c1 (configuration not stated)	-15.4%	–
CN(Cc1ccc(F)cc1)C(=O)NCc1nnc2n1CCCCC2	33.6%	–
COCCCN1CCc2cncnc2C1	-18.2%	–
O=C(c1cccc2c1OCO2)N1CCCC1c1noc(C2CC2)n1 (configuration not stated)	31.3%	–
COc1c(-c2ccc(O)cc2)oc2cc(O)cc(O)c2c1=O [ISOKAEMPFERIDE]	-8.89%	–
CCCNC(=O)C(C)Nc1ccc(OCC)cc1 (configuration not stated) [PROPETAMIDE]	-8.27%	–
